Test results reported in patent publication EP3360550A1, “MOLECULES AND PHARMACEUTICAL COMPOSITIONS, IN PARTICULAR FOR TREATING A GENETIC BLOOD DISORDER” (Université de La Réunion, priority 2017, dated 2018).

Experiments:
RBCs = experiment: Control of hemolysis (RBC count with CASY Cell Counter and Analyzer); type: cell-based; settings: for decrease of RBC concentration compared to vehicle (DMSO) alone: 0.1 mM, 30 min at room temperature; for RBCs/ml (x10^6): RBCs at 6x10^6 cells/ml incubated with molecule at 0.1 mM for 30 min at room temperature
Experimental: At the end of the 30 min of incubation with the molecules, the number of RBC for the control of hemolysis was measure by using CASY® Cell Counter and Analyzer.
For hemolysis assays, RBCs were suspended at 6x10^6 cells/ml in the Hanks/0.4% BSA buffer and the concentration measured accurately using the CASY® Cell Counter and Analyzer. RBCs were then incubated or not with solutions comprising either Molecule 1, Molecule 2 or Molecule 3 at 0.1 mM or DMSO, for 30 min at room temperature. After this incubation time cell concentration was measured again using CASY® Cell Counter and Analyzer (Table 1). If hemolysis occurs during this incubation time it will be reflected by a decrease in the RBC concentration.

laminin 521 = experiment: Red blood cell adhesion to laminin 521 under flow conditions; type: cell-based, human; settings: for RBC adhesion to laminin: RBCs from sickle cell disease patients incubated with molecule at 0.1 mM for 30 min at room temperature, 3 blood samples, Figure 1; for inhibition of RBC adhesion to laminin (dose effect): increasing concentrations 50, 100 and 200 µM, same conditions as in Example 1, Figure 2
Experimental: Red blood cell adhesion to laminin 521 was measured under flow conditions using Vena8 Endothelial+™ biochips (internal channel dimensions: length 20 mm, width 0.8 mm, height 0.12 mm) and ExiGo™ Nanopumps (Cellix Ltd, Dublin, Ireland). Three different solutions were prepared with either Molecule 1, Molecule 2 or Molecule 3 (0.1 mM) by solubilizing Molecule 1, 2 or 3 using DMSO. Recombinant human laminin 521 (BioLamina) at 5 ng/µl was immobilized on the internal surface of the biochips at 4°C overnight. RBCs from sickle cell disease patients were suspended at 5x10^7 cells/ml in Hanks balanced salt solution, without calcium chloride and magnesium sulfate (Sigma-Aldrich) supplemented with 0.4% BSA, and incubated with the solution comprising either Molecule 1, Molecule 2 or Molecule 3 at 0.1 mM or DMSO for 30 min at room temperature (20°C) and perfused through the biochip channels for 10 min at a shear stress of 0.5 dyn/cm^2 followed by a washout at the same shear stress with the buffer alone for 30 min. Five minutes washouts with the Hanks/0.4% BSA buffer were performed at 1, 2, 3, 4 and 5 dyn/cm^2. After each wash, adherent RBCs were counted in 7 representative areas along the centerline of each channel using the AxioObserver Z1 microscope and ZEN analysis software (Carl Zeiss, Le Pecq, France) and the mean number of adherent RBCs was determined for each condition and each washout step (Figure 1). Images of the same 7 areas were obtained throughout each experiment. Three adhesion assays were performed with 3 different blood samples. RBC adhesion to laminin was inhibited when the RBC suspension was incubated with Molecule 2 or 3, but not Molecule 1.
To address the dose effect of the molecules, adhesion assays were performed in the same conditions as in Example 1, using the following concentrations for Molecule 1, 2 or 3: • 50, 100 and 200 µM.

CCC(=O)N1CCc2ccc(OCc3nc(C(=O)NCc4ccccc4)co3)cc2C1c1ccc(C)cc1 (stereo not drawn) [Molecule 1]
decrease of RBC concentration compared to vehicle (DMSO) alone (RBCs): no decrease | RBCs/ml (x10^6) (RBCs): 6.04 RBCs/ml (x10^6)

Cc1c(CC(=O)NC(C(=O)O)c2ccccc2)c(=O)oc2c(C)c3oc4c(c3cc12)CCCC4 (stereo not drawn) [Molecule 2]
RBC adhesion to laminin (laminin 521): inhibited | inhibition of RBC adhesion to laminin (dose effect) (laminin 521): increasing inhibition | RBCs/ml (x10^6) (RBCs): 5.55 RBCs/ml (x10^6)

O=S(=O)(O)CCCn1c(=NN=Cc2c(O)ccc3ccccc23)sc2ccccc21 [Molecule 3]
RBC adhesion to laminin (laminin 521): inhibited | inhibition of RBC adhesion to laminin (dose effect) (laminin 521): increasing inhibition | decrease of RBC concentration compared to vehicle (DMSO) alone (RBCs): no decrease | RBCs/ml (x10^6) (RBCs): 6.02 RBCs/ml (x10^6)
